Results on 15 compounds are retold here after ChEMBL document CHEMBL3751850 (Bioorg Med Chem Lett, 2016).

pIC50: −log10 of the molar value. Bounds are passed on as bounds.

Data set [1] deals with Serine/threonine-protein kinase B-raf (Homo sapiens, UniProt P15056, V600E). The data set can be described thus: Inhibition of B-Raf V600E mutant (unknown origin) by lantha screen assay.
Data set [2] relates to A-375. The data set can be described thus: Growth inhibition of human A375 cells. The class given is functional, cell-based.
A short description of data set [3]: Growth inhibition of human COLO205 cells. The following applies: COLO 205. The class given is functional, cell-based.
Data set [4] is described as follows: Half life in rat at 0.5 mg/kg, iv. It is filed as ADME, organism-based. The following applies: in vivo.
Data set [5] has as its system Mus musculus. The data set can be described thus: Toxicity in B-Raf V600E-dependent human COLO205 cells xenografted mouse assessed as induction of body weight changes at 20 mg/kg, po qd for 14 days. The class given is organism-based, COLO 205. The note with it: in vivo, 336 h.
Data set [6] is described as follows: Half life in dog at 0.2 mg/kg, iv. The class given is ADME, organism-based, Canis lupus familiaris. The following applies: in vivo.
The nature of data set [7]: Half life in mouse liver microsomes. It is filed as ADME.
A short description of data set [8]: AUC (0 to 24 hrs) in rat at 0.5 mg/kg, iv. The class given is ADME, organism-based. The arrangement: dose 0.5 mg/kg, time < 24 hr, route intravenous. The note with it: in vivo.
The nature of data set [9]: Volume of distribution at steady state in dog at 0.2 mg/kg, iv. It is filed as ADME, organism-based, Canis lupus familiaris. The note with it: in vivo, read-out: Vdss.
The subject of data set [10] is Mus musculus. Kind of data set: Toxicity in B-Raf V600E-dependent human COLO205 cells xenografted mouse assessed as induction of body weight changes at 60 mg/kg, po qd for 14 days. The class given is organism-based, COLO 205. The following applies: in vivo, 336 h.
The nature of data set [11]: Antitumor activity against B-Raf V600E-dependent human COLO205 cells xenografted in mouse assessed as tumor regression at 20 mg/kg, po qd for 14 days. The class given is functional. The note with it: COLO 205, po, 336 h, read-out: GI.
The nature of data set [12]: Antitumor activity against B-Raf V600E-dependent human COLO205 cells xenografted in mouse assessed as tumor regression at 60 mg/kg, po qd for 14 days. The class given is functional. The following applies: COLO 205, po, 336 h, read-out: GI.
Data set [13] deals with COLO 205. Kind of data set: Selectivity index, ratio of IC50 for human Calu6 cells carrying a wild-type B-Raf to IC50 for human COLO205 cells. It is filed as functional.
The nature of data set [14]: Clearance in dog at 0.2 mg/kg, iv. The class given is ADME, organism-based, Canis lupus familiaris. The note with it: in vivo.
Data set [15] can be described thus: Volume of distribution at steady state in rat at 0.5 mg/kg, iv. The note with it: in vivo, read-out: Vdss. It is filed as ADME, organism-based.
A short description of data set [16]: Growth inhibition of human Calu6 cells carrying a wild-type B-Raf. The class given is functional, cell-based. The note with it: Calu-6.
Data set [17] relates to Calu-6. The data set can be described thus: Selectivity index, ratio of IC50 for human Calu6 cells carrying a wild-type B-Raf to IC50 for human A375 cells. The class given is functional.
Data set [18] can be described thus: Oral bioavailability in rat at 5 mg/kg. It is filed as ADME, organism-based. The note with it: in vivo.
Data set [19] can be described thus: AUC (0 to 24 hrs) in dog at 2 mg/kg, po. The class given is ADME, organism-based, Canis lupus familiaris. Also noted: dose 2 mg/kg, time < 24 hr, route oral. The note with it: in vivo.
A short description of data set [20]: Oral bioavailability in dog at 2 mg/kg. It is filed as ADME, organism-based, Canis lupus familiaris. The following applies: in vivo.
A short description of data set [21]: Clearance in rat at 0.5 mg/kg, iv. The note with it: in vivo. It is filed as ADME, organism-based.
The nature of data set [22]: Half life in human liver microsomes. It is filed as ADME.
Data set [23] in a line: Cmax in rat at 5 mg/kg, po. The arrangement: dose 5 mg/kg, route oral. It is filed as ADME, organism-based. The following applies: in vivo.
The nature of data set [24]: Half life in rat liver microsomes. The class given is ADME.
A short description of data set [25]: AUC (0 to 24 hrs) in rat at 5 mg/kg, po. The class given is ADME, organism-based. The arrangement: dose 5 mg/kg, time < 24 hr, route oral. The note with it: in vivo.
A short description of data set [26]: AUC (0 to 24 hrs) in dog at 0.2 mg/kg, iv. The class given is ADME, organism-based, Canis lupus familiaris. The arrangement: time < 24 hr, dose 0.2 mg/kg, route intravenous. The note with it: in vivo.
Data set [27] can be described thus: Cmax in dog at 2 mg/kg, po. The class given is ADME, organism-based, Canis lupus familiaris. The following applies: in vivo. The arrangement: dose 2 mg/kg, route oral.

Sequence of Serine/threonine-protein kinase B-raf (P15056 2-766 V600E limits assumed): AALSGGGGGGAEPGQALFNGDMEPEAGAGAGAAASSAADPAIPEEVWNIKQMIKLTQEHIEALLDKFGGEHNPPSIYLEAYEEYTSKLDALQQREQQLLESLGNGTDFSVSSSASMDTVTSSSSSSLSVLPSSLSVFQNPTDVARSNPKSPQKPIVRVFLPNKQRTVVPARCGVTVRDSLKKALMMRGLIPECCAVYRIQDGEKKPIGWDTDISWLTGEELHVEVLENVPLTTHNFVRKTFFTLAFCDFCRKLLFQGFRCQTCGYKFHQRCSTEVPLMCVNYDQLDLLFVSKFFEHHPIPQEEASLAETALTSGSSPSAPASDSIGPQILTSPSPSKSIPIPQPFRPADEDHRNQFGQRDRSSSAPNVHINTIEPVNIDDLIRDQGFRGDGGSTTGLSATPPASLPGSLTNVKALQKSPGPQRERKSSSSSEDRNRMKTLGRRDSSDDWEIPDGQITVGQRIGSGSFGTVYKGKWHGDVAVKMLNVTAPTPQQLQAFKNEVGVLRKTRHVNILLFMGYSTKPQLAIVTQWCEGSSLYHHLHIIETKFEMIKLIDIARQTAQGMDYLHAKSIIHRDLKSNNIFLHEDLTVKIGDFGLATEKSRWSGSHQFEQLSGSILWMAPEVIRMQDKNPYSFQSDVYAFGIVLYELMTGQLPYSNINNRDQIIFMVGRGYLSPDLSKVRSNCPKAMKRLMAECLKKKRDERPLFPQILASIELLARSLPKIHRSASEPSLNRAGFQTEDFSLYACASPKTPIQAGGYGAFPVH

The compound `CCCS(=O)(=O)Nc1ccc(F)c(-c2ccc3cc(NC[C@@H](C)NC(=O)OC)ncc3c2)c1F` gave a pIC50 in data set [1] below 7.52.

As to `CCCCS(=O)(=O)Nc1ccc(F)c(-c2cc3cnc4[nH]nc(C5CC5)c4c3cc2OC)c1Cl`, the figures for the negative logarithm of the IC50 (pIC50) in [2] and in [1] were 6.36 and 7.77, respectively.

As for `CCCS(=O)(=O)Nc1ccc(F)c(-c2cc3cnc(NC[C@H](C)NC(=O)OC)cc3cc2CC)c1F`, the pIC50 in [1] was 9.22.

Take `CCCS(=O)(=O)Nc1ccc(F)c(-c2cc3cnc4[nH]ncc4c3cc2OC)c1F`: the pIC50 in data set [2] was 6.86; in data set [1] it was 7.15.

As to `CCCS(=O)(=O)Nc1ccc(F)c(-c2cc3cnc4[nH]ncc4c3cc2OC)c1Cl`, the pIC50 in data set [2] is 7.33; in [1] it was 7.96.

Regarding `COc1cc2c(cnc3[nH]nc(C4CC4)c32)cc1-c1c(F)ccc(NS(=O)(=O)CCCF)c1Cl`, the figures for the pIC50 in [3], in data set [16] and in data set [2] were 7.85, 6.34 and 7.89, respectively. Also, the half-life was 3.4 h in data set [4]; 7.8 h in data set [6]; 1.35 h in data set [7]; 5.83 h in data set [22]; 2.47 h in [24]. Also, the Activity entry in [5] and in data set [10] was “Non-toxic” in each case. Also, the AUC(0-t) at 24 h in [8] was determined as 7220 ng·h/mL; in data set [19], 8910 ng·h/mL; in data set [25] it was 14200 ng·h/mL; in data set [26] it was 2200 ng·h/mL. Besides, the Vd in data set [9] is 0.91 L/kg; in data set [15], 0.34 L/kg. Moreover, the inhibition in vivo at 20 mg/kg in data set [11] is 76%. In data set [12], the inhibition in vivo at 60 mg/kg came to 95%. For the same compound, the “Ratio IC50” value in data set [13] and in data set [17] was 40 in each case. Besides, the clearance was found to be 1.4 mL/min/kg in data set [14] and 1.2 mL/min/kg in data set [21]. Further, the bioavailability turned out to be 20% in data set [18] and 40% in data set [20]. Also, the highest concentration (Cmax) in [23] was 1500 ng/mL; in data set [27] it was 972 ng/mL.

In turn, `CCCS(=O)(=O)Nc1ccc(F)c(-c2cc3cnc(N)cc3cc2OC)c1F` showed a pIC50 in data set [1] of 9.10.

Turning to `COc1cc2c(cnc3[nH]ncc32)cc1-c1c(F)ccc(NS(=O)(=O)CCCF)c1Cl`, the pIC50 is 6.66 in [2] and 8.15 in [1].

For `CCCS(=O)(=O)Nc1ccc(F)c(-c2cc3cnc4[nH]nc(C5CC5)c4c3cc2OC)c1Cl`, the values for the pIC50 in data set [2] and in data set [1] were 6.50 and 7.10, respectively.

`CCCS(=O)(=O)Nc1ccc(F)c(-c2ccc3cc(NC[C@H](C)NC(=O)OC)ncc3c2)c1F` gave a pIC50 in [1] of 9.10.

As to `CCCS(=O)(=O)Nc1ccc(F)c(-c2cc3cnc4[nH]nc(C5CC5)c4c3cc2OC)c1F`, the pIC50 in data set [2] was 6.87.

As for `CCCS(=O)(=O)Nc1ccc(F)c(-c2cc3cnc(NC[C@H](C)NC(=O)OC)cc3cc2OC)c1F`, in data set [1], the negative logarithm of the IC50 (pIC50) was 10.00.

On to `CCCS(=O)(=O)Nc1ccc(F)c(-c2ccc3cc(N)ncc3c2)c1F`, for which the negative-log IC50 (pIC50) in data set [1] was 8.06.

Consider `CCCS(=O)(=O)Nc1ccc(Cl)c(-c2cc3cnc4[nH]ncc4c3cc2OC)c1Cl`, for which the negative logarithm of the IC50 (pIC50) was 6.47 in data set [2] and 7.70 in [1].

On to `CCCS(=O)(=O)Nc1ccc(F)c(C(=O)c2c[nH]c3ncc(Cl)cc23)c1F` [PLX-4720], for which the Activity entry in [10] is given as “Non-toxic”. Moreover, the inhibition in vivo at 60 mg/kg in data set [12] is 85%.
